# Results from patent US10239832B2, “N-(1-hydroxy-3-(pyrrolidinyl)propan-2-yl)pyrrolidine-3-carboxamide derivatives as glucosylceramide synthase inhibitors” (BIOMARIN PHARMACEUTICAL INC., priority 2013, dated 2019).
# Molecular target: T1, GCS (Canis lupus familiaris, UniProt A0A8I3MXG6)
# T1 construct: endogenous in cells; host or cells: MDCK (Madin-Darby canine kidney) cells, whole-cell lysate
# T1 sequence (A0A8I3MXG6 1-394): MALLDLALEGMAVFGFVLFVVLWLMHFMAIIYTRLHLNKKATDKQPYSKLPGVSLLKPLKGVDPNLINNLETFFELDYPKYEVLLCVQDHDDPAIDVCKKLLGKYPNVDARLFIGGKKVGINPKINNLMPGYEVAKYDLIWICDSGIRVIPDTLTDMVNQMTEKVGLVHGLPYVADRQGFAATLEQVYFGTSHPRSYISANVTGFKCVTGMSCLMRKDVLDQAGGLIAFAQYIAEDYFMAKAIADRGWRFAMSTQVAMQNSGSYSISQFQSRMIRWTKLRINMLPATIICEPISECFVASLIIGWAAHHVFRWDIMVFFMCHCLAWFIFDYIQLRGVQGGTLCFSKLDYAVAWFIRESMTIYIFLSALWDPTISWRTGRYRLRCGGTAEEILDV
# Test: GCS enzymatic assay (MDCK cell lysate, NBD-ceramide to glucosylceramide, LC/MS)
# Format: biochemical, canine
# Details: Table 2; class symbols A, B, C; the table does not say which of the assays; read-out: Data Range (IC50 values)
# Method in brief: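 IC50 or percent inhibition came from LC/MS/MS (ESI+, MRM) of NBD-ceramide and glucosylceramide, with tolbutamide as internal standard. The reaction used MDCK (canine) cell lysate as the enzyme source and was ended with acetonitrile. Mock wells received 0.1% DMSO.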
row,SMILES,IC50 [nM]
1,"O=C(N[C@H](CN1CCCC1)[C@H](O)c1ccc2c(c1)OCCO2)C1CCN(c2ccc3c(c2)CCCC3)C1 (stereo partly drawn) [Compound 80G, N-((1R,2R)-1-(2,3-dihydrobenzo[b][1,4]dioxin-6-yl)-1-hydroxy-3-(pyrrolidin-1-yl)propan-2-yl)-1-(5,6,7,8-tetrahydronaphthalen-2-yl)pyrrolidine-3-carboxamide]",1 to 30
2,"O=C(N[C@H](CN1CCCC1)[C@H](O)c1ccc(OC2CCC2)c(Cl)c1)[C@@H]1CCN(c2ccc(Cl)cc2)C1 [Compound 140, (R)-N-((1R,2R)-1-(3-chloro-4-cyclobutoxyphenyl)-1-hydroxy-3-(pyrrolidin-1-yl)propan-2-yl)-1-(4-chlorophenyl)pyrrolidine-3-carboxamide]",1 to 30
3,"O=C(N[C@H](CN1CCCC1)[C@H](O)c1ccc(OC2CC2)c(Cl)c1)C1CCN(c2ccc(Cl)cc2)C1 (stereo partly drawn) [Compound 3A, N-((1R,2R)-1-(3-chloro-4-cyclopropoxyphenyl)-1-hydroxy-3-(pyrrolidin-1-yl)propan-2-yl)-1-(4-chlorophenyl)pyrrolidine-3-carboxamide]",30 to 100
4,"O=C(N[C@H](CN1CCCC1)[C@H](O)c1cc(F)c2c(c1)OCCO2)C1CCN(c2ccc(Cl)cc2)C1 (stereo partly drawn) [Compound 2A, 1-(4-chlorophenyl)-N-((1R,2R)-1-(8-fluoro-2,3-dihydrobenzo[b][1,4]dioxin-6-yl)-1-hydroxy-3-(pyrrolidin-1-yl)propan-2-yl)pyrrolidine-3-carboxamide]",1 to 30
5,"O=C(N[C@H](CN1CCCC1)[C@H](O)c1ccc2c(c1)OCCO2)C1CCN(c2ccc3cc(Cl)ccc3n2)C1 (stereo partly drawn) [Compound 99C, 1-(6-chloroquinolin-2-yl)-N-((1R,2R)-1-(2,3-dihydrobenzo[b][1,4]dioxin-6-yl)-1-hydroxy-3-(pyrrolidin-1-yl)propan-2-yl)pyrrolidine-3-carboxamide]",1 to 30
6,"O=C(N[C@H](CN1CCC1)[C@H](O)c1ccc2c(c1)OCCO2)C1CCN(c2ccc3cc(F)ccc3c2)C1 (stereo partly drawn) [Compound 79A, N-((1R,2R)-3-(azetidin-1-yl)-1-(2,3-dihydrobenzo[b][1,4]dioxin-6-yl)-1-hydroxypropan-2-yl)-1-(6-fluoronaphthalen-2-yl)pyrrolidine-3-carboxamide]",1 to 30

# Now from value to compound:
row,IC50 [nM],SMILES
1,1 to 30,"Cn1ncc2ccc(N3CC[C@@H](C(=O)N[C@H](CN4CCCC4)[C@H](O)c4cc(F)c5c(c4)OCCO5)C3)cc21 [Compound 132, (R)-N-((1R,2R)-1-(8-fluoro-2,3-dihydrobenzo[b][1,4]dioxin-6-yl)-1-hydroxy-3-(pyrrolidin-1-yl)propan-2-yl)-1-(1-methyl-1H-indazol-6-yl)pyrrolidine-3-carboxamide]"
2,1 to 30,"O=C(N[C@H](CN1CCCC1)[C@H](O)c1cc(F)c2c(c1)OCCO2)[C@@H]1CCN(c2cccc(Oc3ccc(Cl)cc3)n2)C1 [Compound 114, (R)-1-(6-(4-chlorophenoxy)pyridin-2-yl)-N((1R,2R)-1-(8-fluoro-2,3-dihydrobenzo[b][1,4]dioxin-6-yl)-1-hydroxy-3-(pyrrolidin-1-yl)propan-2-yl)pyrrolidine-3-carboxamide]"
3,1 to 30,"O=C(N[C@H](CN1CCCC1)[C@H](O)c1ccc(OC2CC2)c(Cl)c1)[C@@H]1CCN(c2cc(Oc3ccccn3)ccc2Cl)C1 [Compound 118, (R)-N-((1R,2R)-1-(3-chloro-4-cyclopropoxyphenyl)-1-hydroxy-3-(pyrrolidin-1-yl)propan-2-yl)-1-(2-chloro-5-(pyridin-2-yloxy)phenyl)pyrrolidine-3-carboxamide]"
4,1 to 30,"O=C(N[C@H](CN1CCCC1)[C@H](O)c1cc(F)c2c(c1)OCCO2)[C@@H]1CCN(c2ccc3cc(Cl)ccc3n2)C1 [Compound 104, (R)-1-(6-chloroquinolin-2-yl)-N-((1R,2R)-1-(8-fluoro-2,3-dihydrobenzo[b][1,4]dioxin-6-yl)-1-hydroxy-3-(pyrrolidin-1-yl)propan-2-yl)pyrrolidine-3-carboxamide]"
5,1 to 30,"O=C(N[C@H](CN1CCCC1)[C@H](O)c1ccc2c(c1)OCCO2)[C@@H]1CCN(c2cccc(-c3ccc(F)cc3)n2)C1 [Compound 123, (R)-N-((1R,2R)-1-(2,3-dihydrobenzo[b][1,4]dioxin-6-yl)-1-hydroxy-3-(pyrrolidin-1-yl)propan-2-yl)-1-(6-(4-fluorophenyl)pyridin-2-yl)pyrrolidine-3-carboxamide]"
6,1 to 30,"O=C(N[C@H](CN1CCCC1)[C@H](O)c1cc(F)c2c(c1)OCCO2)[C@@H]1CCN(c2ccc3cc(Cl)sc3c2)C1 [Compound 111, (R)-1-(2-chlorobenzo[b]thiophen-6-yl)-N-((1R,2R)-1-(8-fluoro-2,3-dihydrobenzo[b][1,4]dioxin-6-yl)-1-hydroxy-3-(pyrrolidin-1-yl)propan-2-yl)pyrrolidine-3-carboxamide]"

# Same assay, conditions: Table 2; class symbols D, E, F, NA (not active); the table does not say which of the assays
row,Data Range (% inhibition),SMILES
1,F (1-49% (or less than 50%)),"O=C(N[C@H](CN1CCCC1)[C@H](O)c1ccc2c(c1)OCCO2)[C@H]1CCN(CC2(O)CCOCC2)C1 [Compound 5E, (S)-N-((1R,2R)-1-(2,3-dihydrobenzo[b][1,4]dioxin-6-yl)-1-hydroxy-3-(pyrrolidin-1-yl)propan-2-yl)-1-((4-hydroxytetrahydro-2H-pyran-4-yl)methyl)pyrrolidine-3-carboxamide]"
2,D (75-100%),"O=C(N[C@H](CN1CCCC1)[C@H](O)c1ccc2c(c1)OCCO2)[C@@H]1CCN(c2ccc3cc(F)ccc3c2Cl)C1 [Compound 88, (R)-1-(1-chloro-6-fluoronaphthalen-2-yl)-N-((1R,2R)-1-(2,3-dihydrobenzo[b][1,4]dioxin-6-yl)-1-hydroxy-3-(pyrrolidin-1-yl)propan-2-yl)pyrrolidine-3-carboxamide]"
3,D (75-100%),"O=C(N[C@H](CN1CCCC1)[C@H](O)c1ccc2c(c1)OCCO2)C1CCN(c2ccc3ccccc3n2)C1 (stereo partly drawn) [Compound 72A, N-((1R,2R)-1-(2,3-dihydrobenzo[b][1,4]dioxin-6-yl)-1-hydroxy-3-(pyrrolidin-1-yl)propan-2-yl)-1-(quinolin-2-yl)pyrrolidine-3-carboxamide]"
4,E (50-74% (or less than 75%)),"CC(C)Oc1ccc(C(O)[C@@H](CN2CCCC2)NC(=O)[C@H]2CCN(c3ccc(F)cc3)C2)cn1 (stereo in doubt) [Compound 31B, (S)-1-(4-fluorophenyl)-N-((1S,2R)-1-hydroxy-1-(6-isopropoxypyridin-3-yl)-3-(pyrrolidin-1-yl)propan-2-yl)pyrrolidine-3-carboxamide]"
5,E (50-74% (or less than 75%)),"CC1(C)CCc2ccc(N3CCC(C(=O)N[C@H](CN4CCCC4)[C@H](O)c4ccc5c(c4)OCCO5)C3)cc2O1 (stereo partly drawn) [Compound 71E, N-((1R,2R)-1-(2,3-dihydrobenzo[b][1,4]dioxin-6-yl)-1-hydroxy-3-(pyrrolidin-1-yl)propan-2-yl)-1-(2,2-dimethylchroman-7-yl)pyrrolidine-3-carboxamide]"
6,F (1-49% (or less than 50%)),"O=C(N[C@H](CN1CCCC1)[C@H](O)c1ccc2c(c1)OCCO2)C1CCN(c2ccc3nccnc3c2)C1 (stereo partly drawn) [Compound 83C, N-((1R,2R)-1-(2,3-dihydrobenzo[b][1,4]dioxin-6-yl)-1-hydroxy-3-(pyrrolidin-1-yl)propan-2-yl)-1-(quinoxalin-6-yl)pyrrolidine-3-carboxamide]"
